Laboratory results: EP1150982B1, “PURINE INHIBITORS OF CYCLIN DEPENDENT KINASE 2 AND IkB-alpha” (CV THERAPEUTICS, INC., priority 1999, dated 2000)
≈ marks a conversion by molar mass, not a printed value. Where two headings read alike, the source gives them in different places.

Experiments:
[1] = biological target: IκB-α kinase; experiment: IκB-α kinase assay (filter assay of affinity enriched IκB-α kinase from LPS-activated HUVEC lysate); assay type: biochemical, human; conditions: Table 11, Enzyme Activity of Selected Compounds
[2] = biological target: CDK2 (Homo sapiens, UniProt P24941); experiment: biochemical; conditions: concentration required to inhibit CDK2 activity by 50%; 30 µM ATP, histone H1, 30°C for 30 min; read-out: IC50 (µg/mL) enzyme (converted)
Protocol: Compounds of this invention were assayed to determine their CDK2 inhibitory activity. The assay system (total volume of 50 µl) contained 50 mM Tris-HCl, pH 7.4, 10 mM MgCl2, 5 mM DTT, 1 µg of histone H1, 30 µM ATP (1 µCi of gamma^32P labeled ATP), 10 µg of BSA and 1 ng of purified CDK2. After incubation at 30°C for 30 min, the reaction was terminated by the addition of 10 µl of 10% TCA and the samples were blotted onto nitrocellulose filters. These filters were washed extensively in 10% TCA and assayed for radioactivity. Blanks contained no enzyme. […] After incubation at 30 min., the assay tubes were processed as above.

[3] = test system: rat aortic smooth muscle cells; experiment: tissue or blood; assay type: cell-based; conditions: read-out: IC50 (µg/mL) cells
Protocol: (§1) Early passage rat aortic smooth muscle cells (CV Therapeutics Cell repository) were seeded in 48 well dishes (Falcon, […]) at a density of 20,000 cells/ml of DME containing 5% heat inactivated bovine serum. The cells were incubated in a standard tissue culture incubator for 48 hr. The medium was aspirated and the wells were replenished with 0.2 ml of fresh medium. […]

[4] = test system: P388 - mouse lymphoid neoplasm; experiment: Cell proliferation assay, P388; assay type: cell-based; conditions: P388 cells, read-out: IC50 (µg/ml) for Inhibition of Cell Proliferation P 388
[5] = test system: Ovcar human ovarian Carcinoma; experiment: Cell proliferation assay, Ovcar; assay type: cell-based; conditions: Ovcar cells, read-out: IC50 (µg/ml) for Inhibition of Cell Proliferation OvC ar
Protocol: as §1
(§2) Similar assays were performed using the following cell lines: P388 - mouse lymphoid neoplasm; L1210 - mouse lymphocytic leukemia; Caco2 human colon adenocarcinoma; MCF7 human breast adenocarcinoma; PupVSMC rat neonatal aortic smooth muscle cells; Ovcar human ovarian Carcinoma; Pancl human pancreatic adenocarcinoma; and HUVEC human umbilical cord endothelial cells.

[6] = test system: Pancl human pancreatic adenocarcinoma; experiment: Cell proliferation assay, Pancl; assay type: cell-based; conditions: Pancl cells, read-out: IC50 (µg/ml) for Inhibition of Cell Proliferation Panel
Protocol: as §1, §2

[7] = test system: PupVSMC rat neonatal aortic smooth muscle cells; experiment: Cell proliferation assay, PupVSMC; assay type: cell-based
Protocol: (§3) Early passage rat aortic smooth muscle cells (CV Therapeutics Cell repository) were seeded in 48 well dishes (Falcon, […]) at a density of 20,000 cells/ml of DME containing 5% heat inactivated bovine serum. The cells were incubated in a standard tissue culture incubator for 48 hr. The medium was aspirated and the wells were replenished with 0.2 ml of fresh medium. Compounds of this invention were added at concentrations ranging from 100 to 0.37 µg/ml. After 48 hr incubation, the medium was aspirated and the cultures were treated with 0.2 ml of saline and 0.25 µl of phenazine methosulfate solution containing MTS (Cell Titer 96® Aqueous Non-radioactive cell proliferation assay kit, Catalog # G 5430, Promega, 2800 Woods Hollow Road, Madison, WI 53711-5399). […]
as §2

[8] = test system: neointima formation following balloon angioplasty in the rat carotid artery; experiment: Neointima formation following balloon angioplasty, rat carotid artery model; assay type: in vivo; conditions: 14 days recovery
Description: In this example, the left common carotid arteries of adult male rats (n=10 per experimental group) were surgically injured using a Fogarty arterial embolectomy catheter. Immediately after injury, the common carotid artery was bisected with a vascular clamp, thereby establishing an untreated and treated segment. A drug delivery catheter was then inserted into the distal half of the common carotid. After drug delivery, the catheter was removed and excess drug was washed out by removing the vascular clamp and re-establishing blood flow before closing the artery. […] The harvested tissue was sectioned and the neointimal area was digitized and measured with a computer planimetry system.

[9] = test system: MCF7 human breast adenocarcinoma; experiment: Cell proliferation assay, MCF7; assay type: cell-based; conditions: MCF7 cells, read-out: IC50 (µg/ml) for Inhibition of Cell Proliferation MCF 7
Protocol: as §1, §2

[10] = test system: L1210 - mouse lymphocytic leukemia; experiment: cells; assay type: cell-based; conditions: read-out: IC50 (µg/ml) for Inhibition of Cell Proliferation L 120
Protocol: as §3, §2

[11] = test system: Caco2 human colon adenocarcinoma; experiment: cells; assay type: cell-based; conditions: Caco-2, read-out: IC50 (µg/ml) for Inhibition of Cell Proliferation Caco 2
Protocol: as §3, §2

[12] = test system: mammalian cells in culture; conditions: literature; cited from earlier work
[13] = inhibitory activity against the cell line, Table 9, unit inferred, read-out: PupVSMC

Structure (SMILES): CC(C)n1cnc2c(Nc3cccc(-c4ccc(C#N)cc4)c3)nc(N(CCO)CCO)nc21
- IC50 [1]: 2.2 µM

Structure (SMILES): CC(C)n1cnc2c(NCc3ccc(-c4ccccn4)cc3)nc(N(CCO)CCO)nc21
- IC50 [1]: 4.5 µM

Structure (SMILES): COc1cccc(-c2ccc(CNc3nc(N(CCO)CCO)nc4c3ncn4C(C)C)cc2)c1
- IC50 [1]: > 10 µM

Structure (SMILES): COc1ccc(-c2ccc(CNc3nc(N(CCO)CCO)nc4c3ncn4C(C)C)cc2)cc1
- IC50 [1]: 11 µM

Structure (SMILES): CC(C)n1cnc2c(Nc3ccc(Br)cc3)nc(N(CCO)CCO)nc21
- IC50 [1]: 14 µM

Structure (SMILES): COC(=O)c1ccc(Cn2cnc3c(NCc4ccc(OC)cc4)nc(Cl)nc32)cc1
- IC50 [2]: > 137 µM

Structure (SMILES): COc1ccc(CNc2nc(N(CCO)CCO)nc3c2ncn3C(C)C)cc1
- IC50 ([3]; Rattus norvegicus, 48 h): 2.1 µg/mL (≈ 5.24 µM)

Structure (SMILES): COc1ccc(CNc2nc(Cl)nc3c2ncn3C(F)(F)F)cc1
- IC50 [2]: > 168 µM

Structure (SMILES): CCN(CC)c1nc(NCc2ccc(-c3ccccc3)cc2)c2ncn(C(C)C)c2n1
- IC50 [1]: > 2.4 µM

Structure (SMILES): CC(C)n1cnc2c(NCc3ccc(-c4ccccc4)cc3)nc(NCCO)nc21
- IC50 [1]: 2.5 µM

Structure (SMILES): CC(C)n1cnc2c(NCc3ccc(Cl)cc3)nc(N(CCN)CCO)nc21
- IC50 ([3]; concentration required to inhibit cell proliferation by 50%, rat aortic smooth muscle cells, 48 hr incubation, MTS): 0.2 µg/mL (≈ 0.495 µM)

Structure (SMILES): CC(C)n1cnc2c(NCc3ccc(Cl)cc3)nc(NCCNCCO)nc21
- IC50 [2]: 5 µM

Structure (SMILES): CC(C)n1cnc2c(NCc3ccc(S(N)(=O)=O)cc3)nc(NCCN)nc21
- IC50 [2]: 22.2 µM

Structure (SMILES): CC(C)Cn1cnc2c(NCc3ccc(C(F)(F)F)cc3)nc(N(CCO)CCO)nc21
- IC50 [2]: 130 µM

Structure (SMILES): CC(C)n1cnc2c(NCc3ccc(C(F)(F)F)cc3)nc(N(CCO)CCO)nc21
- IC50 [2]: 1.28 µM

Structure (SMILES): COc1ccc(CNc2nc(N3CCOCC3)nc3c2ncn3C(C)C)cc1
- IC50 [4]: > 5 µg/mL
- IC50 [5]: 4 µg/mL (≈ 10.5 µM)
- IC50 [6]: 5.5 µg/mL (≈ 14.4 µM)

Structure (SMILES): CC(C)n1cnc2c(NCc3ccc(Cl)cc3)nc(N(CCN)CCO)nc21 [2-[(2-aminoethyl)(6-{[(4-chlorophenyl)methyl]amino}-9-(methylethyl)purin-2-yl)amino]ethan-1-ol]
- IC50 [7, 13]: 0.3 µg/mL (≈ 0.743 µM)

Structure (SMILES): CC(C)n1cnc2c(NCc3ccc(Cl)cc3)nc(N(CCO)CCO)nc21 [2-[(2-hydroxyethyl)(6-{[(4-chlorophenyl)methyl]amino}-9-(methylethyl)purin-2-yl)amino]ethan-1-ol]
- IC50 [7, 13]: 0.3 µg/mL (≈ 0.741 µM)

Structure (SMILES): CC(C)n1cnc2c(NCc3ccc(-c4ccccc4)cc3)nc(N(CCO)CCO)nc21 [2-diethanolamino-6-(4-phenylbenzylamino)-9-isopropyl purine]
- IC50 [1]: 1.1 µM
- IC50 [4]: < 1 µg/mL
- IC50 [6]: 1.3 µg/mL (≈ 2.91 µM)

Structure (SMILES): Clc1ccc(COc2nc(Cl)nc3[nH]cnc23)cc1 [4-chlorobenzyloxy; H; C1]
- IC50 [2]: 203 µM

Structure (SMILES): Cn1cnc2c(OCc3ccc(Cl)cc3)nc(Cl)nc21 [4-chlorobenzyloxy; Me; C1]
- IC50 [2]: 194 µM

Structure (SMILES): COc1ccc(CNc2nc(Cl)nc3c2ncn3CC(C)C)cc1 [4-methoxybenzylamino; 2-methylpropyl; C1]
- IC50 [2]: 173 µM

Structure (SMILES): COc1ccc(CNc2nc(Cl)nc3[nH]cnc23)cc1 [4-methoxybenzylamino; H; C1]
- IC50 [2]: 207 µM

Structure (SMILES): COc1ccc(CNc2nc(N(CCO)CCO)nc3c2ncn3C(C)C)cc1 [Compound 3, 2-diethanolamino-6-(4-methoxybenzylamino)-9-isopropylarine]
- IC50 [7, 13]: 0.4 µg/mL (≈ 0.999 µM)
- reduced the neointimal area ([8]; Figure 1, acute local delivery, saline vehicle alone 6%): about 88%

Structure (SMILES): CC(C)n1cnc2c(Nc3ccc(-c4ccccc4)cc3)nc(N(CCO)CCO)nc21 [Compound 6, 2-diethanolamino-6-(4-phenylanilino)-9-isopropylpurine]
- IC50 ([7]; VSMC, PupVSMC cells, Table 8, read-out: IC50 (µg/ml) for Inhibition of Cell Proliferation Pup VS MC): 1 µg/mL (≈ 2.31 µM)
- IC50 [9]: 4 µg/mL (≈ 9.25 µM)
- IC50 [4]: 1 µg/mL (≈ 2.31 µM)
- IC50 [5]: 7 µg/mL (≈ 16.2 µM)
- IC50 [10]: 4 µg/mL (≈ 9.25 µM)
- IC50 [11]: 0.5 µg/mL (≈ 1.16 µM)
- IC50 [6]: 4 µg/mL (≈ 9.25 µM)

Structure (SMILES): CSc1ccc(Nc2nc(N(CCO)CCO)nc3c2ncn3C(C)C)cc1 [Compound 6A, 2-diethanolamine-6-(4-methylmercapto) anilino-9-isopropylpurine]
- IC50 [1]: 12.4 µM

Structure (SMILES): Cn1cnc2c(NCc3ccccc3)nc(NCCO)nc21 [olomoucine, 2-(hydroxyethylamino)-6-benzylamino-9-methylpurine]
- inhibits cell proliferation at an approximate concentration [12]: ~50 µg/mL

Structure (SMILES): CC(C)n1cnc2c(NCc3ccc(Cl)cc3)nc(NCCN)nc21 [{2-[(2-aminoethyl)amino]-9-(methylethyl)purin-6-yl}[(4-chlorophenyl)methyl]amine]
- IC50 [7, 13]: 0.1 µg/mL (≈ 0.278 µM)
- reducing the neointimal area ([8]; acute local delivery, dose of 5 mg/mL, saline alone 6%): about 90%

Structure (SMILES): CC(N)CNc1nc(NCc2ccc(Cl)cc2)c2ncn(C(C)C)c2n1 (centres unmarked) [{2-[(2-aminopropyl)amino]-9-(methylethyl)purin-6-yl}[(4-chlorophenyl)methyl]amine]
- IC50 [7, 13]: 0.1 µg/mL (≈ 0.267 µM)
